Literature values as cited in publication PMC10687071 (The Journal of Biological Chemistry, 2023).

Legend:
[1] = test system: PAS domains of EAG channels; parameters: method as in PMID 31315662, PMID 32047112; conditions: cited from earlier work
[2] = test system: PAS domains of ERG3 channels; parameters: method as in PMID 32723862; conditions: cited from earlier work

Row | Structure (SMILES) | Binding to PAS domains of EAG channels [1] | Binding to PAS domains of ERG3 channels [2]
1 | CN(C)CCCN1c2ccccc2Sc2ccc(Cl)cc21 [chlorpromazine] | bind | 
2 | C=CC1=C(C)c2cc3[n-]c(cc4[n-]c(cc5nc(cc1n2)C(C)=C5C=C)c(C)c4CCC(=O)O)c(CCC(=O)O)c3C.[Fe+2] [heme] |  | bind
3 | C=CCCCCCCCCC(=O)O [undecylenic acid] | bind | 
